The test system of experiment [1] is HS-PSS. Nature of the experiment: drug sensitivity score (DSS, CellTiter-Glo viability, 72 h) (DSS (dimensionless)); higher = more sensitive; extreme values may be limits of the assay. The procedure, abridged: (§1)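 MPNST cell lines and primary human Schwann cells (750–1000 cells per well) went into 384-well plates preprinted with each compound at five concentrations in 10-fold steps. Plates were incubated 72 h at 37 °C, 5% CO2. Viability was read as CellTiter-Glo ATP luminescence, scaled between vehicle and positive-control wells, with duplicates averaged where present. Percent inhibition is at the top concentration; drug sensitivity score and relative IC50 (censored at top concentration) come from four-parameter logistic fits.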

In experiment [2] the test system is HS-Sch-2. The experiment is described as above. In a few lines: as §1
Experiment [3] relates to HSC1 (primary human Schwann cells). Described as above. In a few lines:
as §1

The test system of experiment [4] is HSC2 (primary human Schwann cells). Described as above. In a few lines:
as §1

Experiment [5] deals with S1507-2. The description is as above. The procedure, abridged:
as §1

Experiment [6] deals with S462. Described as above. The procedure, abridged: as §1
The subject of experiment [7] is ST8814. The experiment is described as above. In a few lines:
as §1

Experiment [8] relates to STS26T. The experiment is described as above. In a few lines: as §1
Experiment [9] relates to YST-1. The description is as above. In a few lines:
as §1

For experiment [10], the system named is HS-PSS. Nature of the experiment: drug sensitivity score (DSS, CellTox-Green cytotoxicity, 72 h) (DSS (dimensionless)); higher = more cytotoxic; extreme values may be limits of the assay. The procedure, abridged: (§2)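 MPNST cell lines and primary human Schwann cells were incubated 72 h at 37 °C in 384-well plates holding five 10-fold compound dilutions. CellTox-Green was added before seeding at a final 1:1000 dilution and reported fluorescence from DNA released by disrupted cells. Signals were scaled to vehicle and positive-control wells, and cultures failing plate quality control were dropped. Drug sensitivity score and relative IC50 come from four-parameter logistic fits, with IC50 censored at the top concentration.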

In experiment [11] the test system is HSC1 (primary human Schwann cells). Described as above. The procedure, abridged: as §2
The test system of experiment [12] is HSC2 (primary human Schwann cells). The description is as above. In a few lines: as §2
In experiment [13] the test system is S1507-2. Described as above. The procedure, abridged:
as §2

The test system of experiment [14] is ST8814. Described as above. In a few lines: as §2
Experiment [15] has as its system STS26T. The experiment is described as above. The procedure, abridged: as §2
The subject of experiment [16] is HS-PSS. Nature of the experiment: % inhibition of CellTiter-Glo viability at highest tested concentration (72 h), relative to DMSO and benzethonium chloride controls; higher = more inhibition. The procedure, abridged: as §1
On the technique in general: Cellular ATP, detected with luciferase, serves as a proxy for viable cell number.

The subject of experiment [17] is HS-Sch-2. The experiment is described as above. The procedure, abridged:
as §1

Experiment [18] deals with HSC1 (primary human Schwann cells). Described as above. The procedure, abridged:
as §1

Experiment [19] deals with HSC2 (primary human Schwann cells). The description is as above. In a few lines:
as §1

Experiment [20] has as its system S1507-2. Described as above. The procedure, abridged:
as §1

Experiment [21] concerns S462. The description is as above. In a few lines: as §1
Experiment [22] relates to ST8814. The description is as above. The procedure, abridged: as §1
For experiment [23], the system named is STS26T. The description is as above. The procedure, abridged: as §1
The test system of experiment [24] is YST-1. The experiment is described as above. In a few lines:
as §1

± gives the standard deviation of the averaged measurements.

By % inhibition is commonly meant the change of the read-out against control, counted positive when it falls.

As to `CC1(C)NC(=O)N(c2ccc([N+](=O)[O-])c(C(F)(F)F)c2)C1=O` [Nilutamide] (max concentration tested 10000 nM), the drug sensitivity score with HS-PSS [1] worked out at 0; in the experiment with HS-Sch-2 [2] it was 0.51; in experiment [3], 0.162; in experiment [4], 0; in the experiment on S1507-2 [5], 0; with S462 [6], 0. Besides, the drug sensitivity score (in the experiment with ST8814 [7]; in the experiment with STS26T [8]; in the experiment on YST-1 [9]; with HS-PSS [10]; in experiment [11]; in experiment [12]) was 0 throughout. The drug sensitivity score with S1507-2 [13], with ST8814 [14] and in the experiment on STS26T [15] was 0 in each case. In addition, the “% inhibition” value in the experiment on HS-PSS [16] came to 8.31%; in the experiment on HS-Sch-2 [17], 18.2%; in [18] it was 9.41%; in [19], 9.17%; in the experiment with S1507-2 [20], 7.48 ± 3.5%; with S462 [21], 6.29 ± 2.4%. Also, the “% inhibition” value with ST8814 [22] is -1.67%; in the experiment on STS26T [23] it was 7.4%; in the experiment with YST-1 [24] it was -2.31%.
`COC(=O)c1ccc2c(c1)NC(=O)/C2=C(\Nc1ccc(N(C)C(=O)CN2CCN(C)CC2)cc1)c1ccccc1` [Nintedanib] (max concentration tested 10000 nM): the drug sensitivity score in the experiment with HS-PSS [1] amounted to 1.83; in the experiment on HS-Sch-2 [2], 2.94; in experiment [3], 0; in experiment [4], 0; in the experiment on S1507-2 [5] it was 0; in the experiment on S462 [6] it was 0. For the same compound, the drug sensitivity score amounted to 0 with ST8814 [7]; 0 in the experiment with STS26T [8]; 3.79 in the experiment on YST-1 [9]; 0.43 with HS-PSS [10]; 0 in [11]; 0 in experiment [12]. For the same compound, the drug sensitivity score with S1507-2 [13], with ST8814 [14] and in the experiment on STS26T [15] was 0 in each case. For the same compound, the “% inhibition” value in the experiment with HS-PSS [16] is 45.7%; with HS-Sch-2 [17], 63.5%; in [18], 0.553%; in [19] it was -4.16%; in the experiment on S1507-2 [20] it was -3.03 ± 4%; in the experiment on S462 [21], -7.48 ± 1.2%. Also, the “% inhibition” value stood at 2.22% in the experiment on ST8814 [22], 2.06% in the experiment on STS26T [23] and 39.7% with YST-1 [24].
Regarding `COc1ccc(C2=N[C@@H](c3ccc(Cl)cc3)[C@@H](c3ccc(Cl)cc3)N2C(=O)N2CCNC(=O)C2)c(OC(C)C)c1` [Nutlin-3] (max concentration tested 10000 nM), the drug sensitivity score in the experiment on HS-PSS [1] was found to be 1.69; with HS-Sch-2 [2] it was 0; in experiment [3] it was 5.97; in [4], 7.69; in the experiment with S1507-2 [5], 0.283 ± 0.4; in the experiment with S462 [6] it was 0. Moreover, the drug sensitivity score was 4.66 in the experiment with ST8814 [7]; 0.0084 with STS26T [8]; 9.36 with YST-1 [9]; 0 in the experiment with HS-PSS [10]; 0 in experiment [11]; 0 in [12]. Moreover, the values for the drug sensitivity score with S1507-2 [13], in the experiment on ST8814 [14] and in the experiment on STS26T [15] were 1.97 ± 2.8, 0.0128 and 0, respectively. Moreover, the “% inhibition” value with HS-PSS [16] came to 24.9%; in the experiment with HS-Sch-2 [17], 1.38%; in experiment [18] it was 62.4%; in experiment [19], 71.8%; with S1507-2 [20] it was 7.98 ± 12%; with S462 [21], 5.05 ± 4.8%. In addition, the results for the “% inhibition” value in the experiment with ST8814 [22], in the experiment on STS26T [23] and in the experiment on YST-1 [24] were 59.7%, 12.2% and 94.8%, respectively.
Turning to `COc1cccc2cc(-c3nc([C@H]4CC[C@H](C(=O)O)CC4)n4ncnc(N)c34)[nH]c12` [OSI-027] (max concentration tested 10000 nM), the drug sensitivity score in the experiment on HS-PSS [1] worked out at 0.84; in the experiment on HS-Sch-2 [2], 2.33; in experiment [3], 10.7; in experiment [4] it was 8.56; with S1507-2 [5], 8.32 ± 1; in the experiment on S462 [6] it was 7.41 ± 0.52. The drug sensitivity score in the experiment on ST8814 [7] was 5.6; in the experiment on STS26T [8] it was 4.45; in the experiment on YST-1 [9] it was 9.46; in the experiment with HS-PSS [10], 0; in experiment [11] it was 0; in experiment [12], 0. Besides, the drug sensitivity score in the experiment on S1507-2 [13] came out at 2.04 ± 1.4; in the experiment with ST8814 [14], 0; with STS26T [15], 0. In addition, the “% inhibition” value with HS-PSS [16] came out at 26.6%; in the experiment with HS-Sch-2 [17], 49.1%; in [18] it was 84.8%; in experiment [19], 80.9%; in the experiment on S1507-2 [20], 64.4 ± 4.5%; with S462 [21] it was 58.2 ± 2.5%. For the same compound, the “% inhibition” value came out at 53% with ST8814 [22], 53.1% in the experiment on STS26T [23] and 78% in the experiment on YST-1 [24].
Turning to `COC1=CC(c2cc3ccccc3[nH]2)=N/C1=C\c1[nH]c(C)cc1C` [Obatoclax] (max concentration tested 10000 nM), the drug sensitivity score in the experiment with HS-PSS [1] was found to be 2.94; in the experiment on HS-Sch-2 [2] it was 2.53; in experiment [3], 8.07; in [4], 8.2; with S1507-2 [5] it was 7.89 ± 1.2; in the experiment with S462 [6] it was 7.25 ± 0.51. Moreover, the drug sensitivity score was 5.7 in the experiment on ST8814 [7]; 5.87 with STS26T [8]; 2.23 in the experiment on YST-1 [9]; 0 in the experiment with HS-PSS [10]; 4.21 in experiment [11]; 2.43 in experiment [12]. Also, the drug sensitivity score amounted to 5.25 ± 0.56 in the experiment with S1507-2 [13], 4.99 in the experiment on ST8814 [14] and 3.1 in the experiment on STS26T [15]. In addition, the “% inhibition” value is 39.5% in the experiment with HS-PSS [16]; 31.2% in the experiment with HS-Sch-2 [17]; 80.1% in experiment [18]; 81.8% in [19]; 95.5 ± 2% in the experiment on S1507-2 [20]; 89.3 ± 2.9% in the experiment with S462 [21]. In addition, the “% inhibition” value with ST8814 [22] stood at 93.7%; in the experiment on STS26T [23], 81.5%; in the experiment on YST-1 [24], 25.6%.
Take `O=C(c1cc(Cc2n[nH]c(=O)c3ccccc23)ccc1F)N1CCN(C(=O)C2CC2)CC1` [Olaparib] (max concentration tested 10000 nM): the drug sensitivity score with HS-PSS [1] came to 1.4; with HS-Sch-2 [2], 2.98; in experiment [3] it was 3.07; in experiment [4], 3.8; in the experiment with S1507-2 [5], 1.07 ± 0.15; in the experiment with S462 [6], 4.85 ± 0.63. The drug sensitivity score with ST8814 [7] amounted to 1.85; in the experiment with STS26T [8], 3.17; in the experiment with YST-1 [9], 10.2; with HS-PSS [10], 0; in experiment [11], 0; in experiment [12], 0.201. In addition, the drug sensitivity score in the experiment on S1507-2 [13] stood at 0.075 ± 0.11; with ST8814 [14], 1.56; with STS26T [15], 1.04. The “% inhibition” value with HS-PSS [16] stood at 23.2%; in the experiment with HS-Sch-2 [17], 32.8%; in experiment [18], 38.1%; in experiment [19] it was 39.3%; with S1507-2 [20] it was 25.7 ± 8.5%; with S462 [21], 61.15 ± 0.35%. Also, the “% inhibition” value in the experiment with ST8814 [22] worked out at 41.6%; in the experiment on STS26T [23] it was 46.3%; in the experiment with YST-1 [24] it was 69%.
